In patent publication US20250108038A1 (priority 2023, published 2025):
pIC50: −log10 of the molar value. Like-named read-outs stand apart in the source and are kept apart here.

Legend:
[1] = target: T1, OCT1 (Homo sapiens, UniProt O15245); assay: Uptake transporter inhibition assay, OCT1 (sumatriptan)
T1 sequence (O15245 1-554): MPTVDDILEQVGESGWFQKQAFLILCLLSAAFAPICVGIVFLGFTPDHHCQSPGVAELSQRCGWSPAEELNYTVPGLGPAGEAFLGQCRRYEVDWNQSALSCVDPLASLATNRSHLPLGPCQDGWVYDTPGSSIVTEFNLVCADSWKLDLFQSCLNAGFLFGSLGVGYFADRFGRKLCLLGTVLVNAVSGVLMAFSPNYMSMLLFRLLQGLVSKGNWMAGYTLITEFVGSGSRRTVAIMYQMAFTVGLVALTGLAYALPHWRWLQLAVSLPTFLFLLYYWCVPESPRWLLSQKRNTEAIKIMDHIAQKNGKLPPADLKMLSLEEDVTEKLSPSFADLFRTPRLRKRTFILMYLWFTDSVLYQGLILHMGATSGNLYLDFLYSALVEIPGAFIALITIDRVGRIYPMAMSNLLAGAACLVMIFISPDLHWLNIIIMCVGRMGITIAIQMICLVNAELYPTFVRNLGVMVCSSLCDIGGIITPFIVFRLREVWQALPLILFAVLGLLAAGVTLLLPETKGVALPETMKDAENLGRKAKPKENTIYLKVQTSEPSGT
Protocol: Uptake experiments were performed using HEK293 cells stably expressing the respective uptake transporters. The assays were conducted according to the actual SOLVO uptake transporter assay protocols (PR-ASY-UPT-General Protocol for Uptake Transporter Inhibition Assays).
Cells were cultured at 37° C. in a humidified atmosphere containing 5% CO2 and were plated onto standard 96-well tissue culture plates.
Before the experiment, the medium was removed, and the cells were washed twice with 100 μL of pre-warmed (37° C.) assay buffer listed in Table 15. The cells were pre-incubated at 37° C. for 30 minutes in assay buffer containing the test article at appropriate concentrations (Table 16), appropriate solvents for solvent controls and the reference inhibitor for reference inhibitor wells. After the pre-incubation step solutions were removed. Uptake experiments were performed at 37° C. in 50 μL of assay buffer containing the probe substrate and the test article or solvent and controls.
After the experiment, cells were washed twice with 100 μL of appropriate cold buffer and lysed with 150 μL scintillation cocktail. Radiolabeled probe substrate transport was determined by liquid scintillation counting.
Uptake of the probe substrate in control cells provided background activity values for all data points.

[2] = Metabolic stability in human intestinal homogenate; assay type: in vitro ADME; settings: for % Remaining / Aa/Ai Mean (n = 2) / CLint(HIH) / T1/2: 1 μM; for CLint(HIH) / T1/2: 0.5 mg/mL homogenate, 1 mM NADPH
Protocol: The intestinal homogenate mixture solution was added to 96-well plates ([…]) in duplicate. […] Reaction was initiated by adding cofactor solution at 10 μL/well.
The intrinsic clearances were calculated using the following equations: […]

[3] = 0.04 μM nominal, sumatriptan, IC50 determination, Table 122
[4] = 0.12 μM nominal, sumatriptan, IC50 determination, Table 122
[5] = 1.11 μM nominal, sumatriptan, IC50 determination, Table 122
[6] = 3.00 μM nominal, sumatriptan, Table 121
[7] = 10.00 μM nominal, sumatriptan, IC50 determination, Table 122
[8] = 30.00 μM nominal, sumatriptan, IC50 determination, Table 122
[9] = 30.00 μM nominal, sumatriptan, Table 121
[10] = 0.14 μM nominal, 0.09 μM NSB corrected, follow-up assay
[11] = 1.24 μM nominal, 0.86 μM NSB corrected, follow-up assay
[12] = 10.00 μM nominal, 6.60 μM NSB corrected
[13] = 11.11 μM nominal, 7.89 μM NSB corrected, follow-up assay
[14] = 33.33 μM nominal, 24.33 μM NSB corrected, follow-up assay
[15] = 100.00 μM nominal, 77.00 μM NSB corrected
[16] = 100.00 μM nominal, 100.00 μM NSB corrected, follow-up assay
[17] = […] nominal, 1.89 μM NSB corrected, follow-up assay

SMILES: OC1(c2ccc(Cl)cc2)c2ccccc2C2=NCCN21 (stereo not shown) [Compound A, 5-(4-chlorophenyl)-2,3-dihydroimidazo[1,2-b]isoindol-5-ol, reference compound]
- pIC50 [1]: 5.64
- Relative transporter specific accumulation [1, 3]: 91.36 ± 5.98 % of control
- Transporter specific accumulation [1, 3]: 881.00 ± 27.83 cpm
- Relative transporter specific accumulation [1, 4]: 73.95 ± 5.69 % of control
- Transporter specific accumulation [1, 4]: 713.17 ± 36.62 cpm
- Relative transporter specific accumulation [1, 5]: 65.12 ± 6.84 % of control
- Transporter specific accumulation [1, 5]: 628.00 ± 55.27 cpm
- Relative transporter specific accumulation [1, 6]: 51.27 ± 1.85 % of control
- Transporter specific accumulation [1, 6]: 484.33 ± 16.61 cpm
- Relative transporter specific accumulation [1, 7]: 25.23 ± 3.64 % of control
- Transporter specific accumulation [1, 7]: 243.33 ± 32.16 cpm
- Relative transporter specific accumulation [1, 8]: 14.03 ± 4.75 % of control
- Transporter specific accumulation [1, 8]: 135.33 ± 45.14 cpm
- Relative transporter specific accumulation [1, 9]: 15.00 ± 1.09 % of control
- Transporter specific accumulation [1, 9]: 141.67 ± 10.22 cpm
- inhibition at 10 µM ([1]; human, Maximum % inhibition, OCT1, HEK293 cells, sumatriptan (10 μM), NIO: no inhibition observed): 86%
- inhibition at 0.04 μM ([1]; human, Relative Inhibition, 0.04 μM nominal, sumatriptan, IC50 determination, Table 122): 9%
- inhibition at 0.12 μM ([1]; human, Relative Inhibition, 0.12 μM nominal, sumatriptan, IC50 determination, Table 122): 26%
- inhibition at 1.11 μM ([1]; human, Relative Inhibition, 1.11 μM nominal, sumatriptan, IC50 determination, Table 122): 35%
- inhibition at 10 µM ([1]; human, Relative Inhibition, 10.00 μM nominal, sumatriptan, IC50 determination, Table 122): 75%
- inhibition at 30 μM ([1]; human, Relative Inhibition, 30.00 μM nominal, sumatriptan, IC50 determination, Table 122): 86%
- inhibition at 3 μM ([1]; human, Relative inhibition, 3.00 μM nominal, sumatriptan, Table 121): 49%
- inhibition at 30 μM ([1]; human, Relative inhibition, 30.00 μM nominal, sumatriptan, Table 121): 85%

SMILES: COCCOC1(c2ccc(Cl)cc2)c2ccccc2C2=NCCN21 (stereo not shown) [Compound I-4]
- Compound A formed (Aa/Ai) ([2]; 0 min): 0.46
- % Remaining ([2]; 0 min): 100%
- Aa/Ai Mean (n = 2) ([2]; 0 min): 1.34
- CLint(HIH) [2]: 8.40 µL/min/mg
- T1/2 [2]: 165 min
- % Remaining ([2]; 5 min): 97.6%
- Aa/Ai Mean (n = 2) ([2]; 5 min): 1.31
- % Remaining ([2]; 10 min): 87.3%
- Aa/Ai Mean (n = 2) ([2]; 10 min): 1.17
- % Remaining ([2]; 20 min): 88.0%
- Aa/Ai Mean (n = 2) ([2]; 20 min): 1.18
- % Remaining ([2]; 30 min): 87.4%
- Aa/Ai Mean (n = 2) ([2]; 30 min): 1.17
- % Remaining ([2]; 60 min): 75.8%
- Aa/Ai Mean (n = 2) ([2]; 60 min): 1.01
- % Remaining ([2]; NCF60 (60 min, no cofactors)): 80.4%
- Aa/Ai Mean (n = 2) ([2]; NCF60 (60 min, no cofactors)): 1.08
- Compound A formed (Aa/Ai) ([2]; 5 min): 0.54
- Compound A formed (Aa/Ai) ([2]; 10 min): 0.50
- Compound A formed (Aa/Ai) ([2]; 20 min): 0.51
- Compound A formed (Aa/Ai) ([2]; 30 min): 0.58
- Compound A formed (Aa/Ai) ([2]; 60 min): 0.50
- Compound A formed (Aa/Ai) ([2]; NCF60 (60 min, no cofactors)): 0.69

SMILES: Clc1ccc(C2(OCC3OCCO3)c3ccccc3C3=NCCN32)cc1 (stereo not shown) [Compound I-19]
- Relative inhibition [1, 10]: 16%
- Relative transporter specific accumulation [1, 10]: 84.03 ± 3.76 % of control
- Transporter specific accumulation [1, 10]: 896.33 ± 19.14 cpm
- Relative inhibition [1, 11]: 39%
- Relative transporter specific accumulation [1, 11]: 61.16 ± 2.59 % of control
- Transporter specific accumulation [1, 11]: 652.33 ± 10.37 cpm
- Relative inhibition [1, 12]: 71%
- Relative transporter specific accumulation [1, 12]: 29.35 ± 0.48 % of control
- Transporter specific accumulation [1, 12]: 930.00 ± 10.03 cpm
- Relative inhibition [1, 13]: 73%
- Relative transporter specific accumulation [1, 13]: 27.13 ± 1.77 % of control
- Transporter specific accumulation [1, 13]: 289.33 ± 15.11 cpm
- Relative inhibition [1, 14]: 86%
- Relative transporter specific accumulation [1, 14]: 14.47 ± 0.94 % of control
- Transporter specific accumulation [1, 14]: 154.33 ± 8.03 cpm
- Relative inhibition [1, 15]: 92%
- Relative transporter specific accumulation [1, 15]: 8.17 ± 0.48 % of control
- Transporter specific accumulation [1, 15]: 259.00 ± 14.94 cpm
- Relative inhibition [1, 16]: 92%
- Relative transporter specific accumulation [1, 16]: 7.84 ± 1.11 % of control
- Transporter specific accumulation [1, 16]: 83.67 ± 11.38 cpm
- maximum inhibition of OCT1-mediated sumatriptan accumulation ([1]; 2-concentration assay, 100 μM (Compound A 30 μM)): 92%
- Maximum % inhibition ([1]; OCT1, HEK293 cells, sumatriptan (10 μM), NIO: no inhibition observed): 92%
- Relative inhibition [1, 17]: 55%
- Relative transporter specific accumulation [1, 17]: 45.47 ± 2.44 % of control
- Transporter specific accumulation [1, 17]: 485.00 ± 17.73 cpm
- maximum inhibition of OCT1-mediated sumatriptan accumulation ([1]; follow-up assay): 92%
- pIC50 ([1]; follow-up assay, NSB-corrected concentrations for Compound I-19): 5.48
- Compound A formed (Aa/Ai) ([2]; 0 min): 0.76
- % Remaining ([2]; 0 min): 100%
- Aa/Ai Mean (n = 2) ([2]; 0 min): 0.90
- CLint(HIH) [2]: 20.0 µL/min/mg
- T1/2 [2]: 69.3 min
- % Remaining ([2]; 5 min): 85.6%
- Aa/Ai Mean (n = 2) ([2]; 5 min): 0.77
- % Remaining ([2]; 10 min): 82.8%
- Aa/Ai Mean (n = 2) ([2]; 10 min): 0.75
- % Remaining ([2]; 20 min): 68.4%
- Aa/Ai Mean (n = 2) ([2]; 20 min): 0.62
- % Remaining ([2]; 30 min): 65.2%
- Aa/Ai Mean (n = 2) ([2]; 30 min): 0.59
- % Remaining ([2]; 60 min): 52.6%
- Aa/Ai Mean (n = 2) ([2]; 60 min): 0.47
- % Remaining ([2]; NCF60 (60 min, no cofactors)): 55.5%
- Aa/Ai Mean (n = 2) ([2]; NCF60 (60 min, no cofactors)): 0.50
- Compound A formed (Aa/Ai) ([2]; 5 min): 0.67
- Compound A formed (Aa/Ai) ([2]; 10 min): 0.67
- Compound A formed (Aa/Ai) ([2]; 20 min): 0.65
- Compound A formed (Aa/Ai) ([2]; 30 min): 0.61
- Compound A formed (Aa/Ai) ([2]; 60 min): 0.53
- Compound A formed (Aa/Ai) ([2]; NCF60 (60 min, no cofactors)): 0.58
